According to patent publication US20100184727A1, “TREATMENT OF EXCESS SEBUM PRODUCTION” (SUMMIT (CAMBRIDGE) LIMITED, priority 2006, published 2010):
Values after ≈ are worked out from the molar mass of the structure shown. Where a name gives a salt, the structure may show the parent alone. Read-outs that look alike come from different tables or passages of the source.

How the values were obtained:
[1] = system: Propionibacterium acnes NCTC 737; experiment: MIC/MBC 96-well plate broth micro-dilution assay; assay type: cell-based; conditions: for MBC / MIC: Cutibacterium acnes
Description: The anaerobic cutaneous propionibacteria e.g. Propionibacterium acnes are implicated in the pathogenesis of acne vulgaris. The test organism Propionibacterium acnes is classified as a ‘Type’ strain for the species. […] MIC determinations were carried out using a standard 96-well plate broth micro-dilution assay. Wilkins-Chalgren anaerobe broth at pH 6 and pH 7.1±0.2 was used for P. acnes. […] The test range for the control compounds varied depending on known activity levels. […] Benzoyl peroxide and erythromycin were used as control compounds in P. acnes assays. Benzoyl peroxide and erythromycin were both dissolved in ethanol.

sebum production = experiment: Sebum production study in healthy male volunteers (Sebumeter); assay type: in vivo; conditions: for Sebum Production Maximum % Reduction LS Means: compared to placebo, healthy male volunteers
Description: The study examined the effects of oxybutynin on sebum production in 9 healthy male volunteers. This was double-blind, randomised, placebo-controlled dose study
The subjects were assessed on each dosing occasion for sebum production pre-dose and 1 h, 2.5 h, 4 h and 6 h post-dose. Skin sebum excretion rates were determined using a Sebumeter® (Optical measurement of sebum excretion using opalescent film imprint, 2006, Handbook of non-invasive methods and the skin, Second Edition). Vital signs were recorded at specified times during each study period and adverse events were reported throughout.
For each subject, the maximum % reduction in sebum production compared to placebo was calculated for each dose level. Using this information, a mixed effects regression analysis of the % reduction in sebum versus dose with subject as a random effect was performed.

[2] = NCTC737, pH 6, Wilkins-Chalgren agar, mean of minimum 4 replicates, read-out: MBC
[3] = NCTC737, pH 6, Wilkins-Chalgren anaerobe broth, mean of minimum 4 replicates, read-out: MIC
[4] = NCTC737, pH 7.1 ± 0.2, Wilkins-Chalgren agar, mean of minimum 4 replicates, read-out: MBC
[5] = NCTC737, pH 7.1 ± 0.2, Wilkins-Chalgren anaerobe broth, mean of minimum 4 replicates, read-out: MIC

MIC [1, 3]	MIC [1, 5]	Compound	MBC [1, 2]	MBC [1, 4]	Antimicrobial activity against P. acnes (in words) ([1]; pH 6)	Antimicrobial activity against P. acnes (in words) ([1]; pH 7.1±0.2)	also measured
500 µg/mL	500 µg/mL	CCN(CC)CC#CCOC(=O)C(O)(c1ccccc1)C1CCCCC1 (stereo not shown) [Oxybutynin chloride, oxybutynin chloride]	1000 µg/mL	500 µg/mL	some moderate antimicrobial activity	some moderate antimicrobial activity	–
500 µg/mL	500 µg/mL	NC(=O)C(c1ccccc1)(c1ccccc1)[C@@H]1CCN(CCc2ccc3c(c2)CCO3)C1 [Darifenacin hydrobromide, darifenacin hydrobromide]	1000 µg/mL	500 µg/mL	some moderate antimicrobial activity	some moderate antimicrobial activity	–
0.63 µg/mL (≈ 0.858 µM)	0.313 µg/mL (≈ 0.426 µM)	CC[C@H]1OC(=O)[C@H](C)[C@@H](O[C@H]2C[C@@](C)(OC)[C@@H](O)[C@H](C)O2)[C@H](C)[C@@H](O[C@@H]2O[C@H](C)C[C@H](N(C)C)[C@H]2O)[C@](C)(O)C[C@@H](C)C(=O)[C@H](C)[C@@H](O)[C@]1(C)O [Erythromycin]	> 2.5 µg/mL	> 2.5 µg/mL	–	–	–

Continued, molecule first:

Compound	MIC [1, 3]	MIC [1, 5]	MBC [1, 2]	MBC [1, 4]	Antimicrobial activity against P. acnes (in words) ([1]; pH 6)	Antimicrobial activity against P. acnes (in words) ([1]; pH 7.1±0.2)	also measured
O=C(OOC(=O)c1ccccc1)c1ccccc1 [Benzoyl peroxide]	–	–	–	–	–	–	MBC ([1]; NCTC737, pH 6): 62.5 µg/mL (≈ 258 µM); MIC ([1]; NCTC737, pH 6): 31.2 µg/mL (≈ 129 µM); MBC ([1]; NCTC737, pH 7.1): 62.5 µg/mL (≈ 258 µM); MIC ([1]; NCTC737, pH 7.1): 31.2 µg/mL (≈ 129 µM)
CCN(CC)CC#CCOC(=O)C(O)(c1ccccc1)C1CCCCC1 (stereo not shown) [oxybutynin]	–	–	–	–	–	–	Sebum Production Maximum % Reduction LS Means (sebum production; dose 1 mg): 21.59%; Sebum Production Maximum % Reduction LS Means (sebum production; dose 2 mg): −16.94%; Sebum Production Maximum % Reduction LS Means (sebum production; dose 5 mg): −34.74%; Sebum Production Maximum % Reduction LS Means (sebum production; dose 10 mg): −75.52%; Effect on sebum production (in words) (sebum production; following administration of 2 mg, 5 mg and 10 mg): decreased with dose
